Blank lines part the entries; values can stand above or below the compound they belong to. Calls of active or inactive are those of the source. The rule behind the calls is not given here.
Experiments:
[1] = target: Heat shock protein HSP 90-alpha (Homo sapiens, UniProt P07900); experiment: Inhibition of His-tagged N-terminal recombinant HSP90alpha (unknown origin) expressed in Escherichia coli BL21 (DE3) incubated for 4 hrs by fluorescence polarization based microplate reader assay
[2] = system: NCI-H1975; experiment: Antiproliferative activity against human NCI-H1975 cells assessed as growth inhibition incubated upto 72 hrs by CellTiter96 Aqueous One Solution Cell Proliferation assay; assay type: functional
[3] = target: T1, Protein deacetylase HDAC6 (Homo sapiens) (UniProt Q9UBN7); experiment: Inhibition of HDAC6 in human NCI-H1975 cells assessed as increase in acetylation of alpha tubulin at 1 uM incubated for 24 hrs by western blot analysis; assay type: cell-based
T1 sequence (whole entry): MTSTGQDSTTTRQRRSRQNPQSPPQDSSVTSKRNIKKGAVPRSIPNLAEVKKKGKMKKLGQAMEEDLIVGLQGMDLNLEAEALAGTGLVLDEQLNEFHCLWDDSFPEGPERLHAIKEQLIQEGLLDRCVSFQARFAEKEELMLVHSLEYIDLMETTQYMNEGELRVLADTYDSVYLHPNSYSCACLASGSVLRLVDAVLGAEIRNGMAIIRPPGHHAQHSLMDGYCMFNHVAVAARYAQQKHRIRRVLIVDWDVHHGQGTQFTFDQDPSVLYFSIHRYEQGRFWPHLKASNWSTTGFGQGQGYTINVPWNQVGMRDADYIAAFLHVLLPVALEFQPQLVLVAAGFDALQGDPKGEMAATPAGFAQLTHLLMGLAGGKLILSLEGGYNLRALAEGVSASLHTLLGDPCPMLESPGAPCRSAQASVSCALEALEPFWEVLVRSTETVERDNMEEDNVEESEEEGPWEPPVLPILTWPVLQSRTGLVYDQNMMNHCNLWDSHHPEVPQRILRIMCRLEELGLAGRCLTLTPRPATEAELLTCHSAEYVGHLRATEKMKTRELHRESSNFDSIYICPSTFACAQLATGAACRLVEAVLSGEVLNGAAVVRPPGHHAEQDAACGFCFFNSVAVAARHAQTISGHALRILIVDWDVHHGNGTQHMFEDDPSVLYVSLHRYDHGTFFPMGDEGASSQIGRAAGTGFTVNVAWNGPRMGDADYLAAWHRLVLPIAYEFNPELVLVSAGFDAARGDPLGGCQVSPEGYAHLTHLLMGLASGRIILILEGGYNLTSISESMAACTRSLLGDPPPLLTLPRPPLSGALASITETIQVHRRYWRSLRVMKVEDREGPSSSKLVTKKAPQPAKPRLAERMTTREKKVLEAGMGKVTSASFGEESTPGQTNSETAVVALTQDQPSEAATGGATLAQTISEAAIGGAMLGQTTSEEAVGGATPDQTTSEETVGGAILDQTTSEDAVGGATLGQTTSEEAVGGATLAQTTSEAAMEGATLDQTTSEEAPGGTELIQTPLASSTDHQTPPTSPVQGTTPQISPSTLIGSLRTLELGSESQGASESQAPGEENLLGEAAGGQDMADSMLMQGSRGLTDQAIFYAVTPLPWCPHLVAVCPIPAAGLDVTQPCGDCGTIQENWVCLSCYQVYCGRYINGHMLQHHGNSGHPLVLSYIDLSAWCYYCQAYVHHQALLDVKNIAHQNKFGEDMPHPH

[4] = target: T2, Heat shock protein HSP90 (Homo sapiens) (UniProt P07900+P08238); experiment: Inhibition of HSP90 in human NCI-H1975 cells assessed as downregulation of Her2 expression at 2 uM incubated for 24 hrs by western blot analysis; assay type: cell-based
[5] = target: T2, Heat shock protein HSP90 (Homo sapiens); experiment: Inhibition of HSP90 in human NCI-H1975 cells assessed as downregulation of Akt expression at 2 uM incubated for 24 hrs by western blot analysis; assay type: cell-based
[6] = target: T2, Heat shock protein HSP90 (Homo sapiens); experiment: Inhibition of HSP90 in human NCI-H1975 cells assessed as upregulation of HSP70 expression at 2 uM incubated for 24 hrs by western blot analysis; assay type: cell-based
[7] = target: T2, Heat shock protein HSP90 (Homo sapiens); experiment: Inhibition of HSP90 in human NCI-H1975 cells assessed as downregulation of Met expression at 2 uM incubated for 24 hrs by western blot analysis; assay type: cell-based
[8] = target: T2, Heat shock protein HSP90 (Homo sapiens); experiment: Inhibition of HSP90 in human NCI-H1975 cells assessed as downregulation of EGFR expression at 2 uM incubated for 24 hrs by western blot analysis; assay type: cell-based
[9] = target: T1, Protein deacetylase HDAC6 (Homo sapiens); experiment: Inhibition of HDAC6 in human NCI-H1975 cells assessed as increase in acetylation of HSP90-Lys 294 residue at 2 uM incubated for 24 hrs by western blot analysis; assay type: cell-based

SMILES: CCN(Cc1ccc(C(=O)NO)cc1)C(=O)c1cc(C(C)C)c(O)cc1O
- IC50 [1]: 0.22 µM
- GI50 [2]: 7 µM

SMILES: CCCCN(Cc1ccc(C(=O)NO)cc1)C(=O)c1cc(Cl)c(O)cc1O
- IC50 [1]: 0.632 µM
- GI50 [2]: 66.4 µM

SMILES: CCN(Cc1ccc(C(=O)NO)cc1)C(=O)c1cc(Cl)c(O)cc1O
- IC50 [1]: 0.693 µM
- GI50 [2]: 13.2 µM

SMILES: CCCN(Cc1ccc(C(=O)NO)cc1)C(=O)c1cc(C(C)C)c(O)cc1O
- IC50 [1]: 0.648 µM
- GI50 [2]: 23.7 µM

SMILES: CN(Cc1ccc(C(=O)NO)cc1)C(=O)c1cc(Cl)c(O)cc1O
- IC50 [1]: 0.608 µM
- GI50 [2]: 68.8 µM

SMILES: CCCN(Cc1ccc(C(=O)NO)cc1)C(=O)c1cc(Cl)c(O)cc1O
- IC50 [1]: > 1 µM
- GI50 [2]: 73.6 µM

SMILES: CCCCN(Cc1ccc(C(=O)NO)cc1)C(=O)c1cc(C(C)C)c(O)cc1O
- IC50 [1]: 0.367 µM
- GI50 [2]: 23.6 µM

Now from value to compound:

- IC50 [1]: > 1 µM
- GI50 [2]: 8.2 µM
SMILES: CN(Cc1ccc(C(=O)NO)cc1)C(=O)c1ccccc1

- inhibition [3]: Active
SMILES: COC1=C2C[C@@H](C)C[C@H](OC)[C@H](O)[C@@H](C)/C=C(\C)[C@H](OC(N)=O)[C@@H](OC)/C=C\C=C(/C)C(=O)NC(=CC1=O)C2=O

- inhibition [4]: Active
- inhibition [5]: Active
- inhibition [6]: Active
- GI50 [2]: 3.5 µM
- inhibition [7]: Active
- inhibition [8]: Active
- inhibition [9]: Active
SMILES: COC(=O)c1ccc(CN(C)C(=O)c2cc(C(C)C)c(O)cc2O)cc1

- GI50 [2]: 30 µM
SMILES: CC(C)c1cc(C(=O)N(C)Cc2ccc(C(=O)O)cc2)c(O)cc1O

Source: ChEMBL document CHEMBL5113492, “Design, synthesis, and biological evalution of bifunctional inhibitors against Hsp90-HDAC6 interplay” (Eur J Med Chem, 2022)
